According to patent US20180318343A1, “THERAPEUTIC AGENT FOR SKIN WOUND OR ROUGH SKIN” (JFE MINERAL COMPANY, LTD., priority 2015, published 2018):

Tests used:
[1] = Dissolution test by stirring method in saline; conditions: per BET surface area, mass ratio 1:50, stirring 500 rpm, 37° C., 3 hours
Protocol: The amount of dissolved Zn^2+ ions is measured in the present description, as follows: The surface areas of samples, which are produced with varying pH values at production by the same process as that for Preparation Example 2 of Examples to be described later, are measured beforehand by the BET method (BET specific surface area analyzer: High Precision, Multi-Analyte Gas Absorption Analyzer, manufactured by Quantachrome Instruments Japan G.K.). For each sample, the Zn^2+ ion concentration after stirring in saline is measured with an ICP emission spectrometer (ICPE-9000, manufactured by Shimadzu Corporation) to thereby obtain the amount of dissolved Zn^2+ ions, and then the amount of dissolved Zn^2+ ions is divided by the previously measured surface area. The mass ratio between each sample and the saline is set to 1:50, and the amount of Zn^2+ ions dissolved in the saline is measured after 3-hour stirring at 500 rpm at 37° C. by means of a rotor. […]
A dissolution test by a stirring method was conducted on 0.6 g each of dry powders obtained in Preparation Example 2 using 30 g of saline, and the amount of dissolved Zn^2+ ions and the pH were measured. […] Then the pH and the Zn^2+ ion concentration after the dissolution test were measured. […]

fibroblast = conditions: cited from earlier work
skin = conditions: in vivo; cited from earlier work

SMILES | Amount of dissolved Zn^2+ ions after dissolution test [1] | zinc ion concentration that does not exhibit toxicity to a fibroblast (fibroblast) | zinc ion level leading to increased inflammatory cell infiltration in skin and remarkably delayed reepithelization (skin)
[O]=[Zn] [zinc oxide] | sufficient |  | 
[OH-].[OH-].[Zn+2] [zinc hydroxide] | less than 0.1 μg/m^2 |  | 
[Zn+2] [zinc ions] |  | not more than 500 μmol/L | not less than 15 mmol/L
